Reference: patent publication US9187467B2, “2-phenyl benzothiazole linked imidazole compounds as potential anticancer agents and process for the preparation thereof” (Council of Scientific and Industrial Research, priority 2012, dated 2015)
Where two headings read alike, the source gives them in different places.

Experiments:
T-47D = assay: SRB anticancer assay, breast; assay type: cell-based; details: Homo sapiens, T47D, 48 h
HCT-116 = assay: SRB anticancer assay, colon; assay type: cell-based, human; details: Homo sapiens, HCT-116, 48 h
A498 = assay: SRB anticancer assay, renal; assay type: cell-based, human; set-up: Log10GI50: unit not given here
MALME-3M = assay: SRB anticancer assay, melanoma; assay type: cell-based, human; set-up: Log10GI50: unit not given here
TK-10 = assay: SRB anticancer assay, renal; assay type: cell-based, human; details: Homo sapiens, TK-10, 48 h
MDA-MB-231/ATCC = assay: SRB anticancer assay, breast; assay type: cell-based, human; set-up: Log10GI50: unit not given here; details: for GI50: Homo sapiens, MDA-MB-231, 48 h, 48 h, read-out: GI50
OVCAR-3 = assay: SRB anticancer assay, ovarian; assay type: cell-based, human; set-up: Log10GI50: unit not given here
UO-31 = assay: SRB anticancer assay, renal; assay type: cell-based, human; set-up: Log10GI50: unit not given here
A549/ATCC = assay: SRB anticancer assay, non-small lung; assay type: cell-based, human; set-up: Log10GI50: unit not given here
MCF7 = assay: SRB anticancer assay, breast; assay type: cell-based, human; details: Homo sapiens, MCF7, 48 h
NCI-H226 = assay: SRB anticancer assay, non-small lung; assay type: cell-based, human; details: Homo sapiens, NCI-H226, 48 h
SF-268 = assay: SRB anticancer assay, CNS; assay type: cell-based, human; set-up: Log10GI50: unit not given here
OVCAR-4 = assay: SRB anticancer assay, ovarian; assay type: cell-based, human; details: Homo sapiens, OVCAR-4, 48 h
NCI-H23 = assay: SRB anticancer assay, non-small lung; assay type: cell-based, human
SK-MEL-5 = assay: SRB anticancer assay, melanoma; assay type: cell-based, human; details: Homo sapiens, SK-MEL-5, 48 h
DU-145 = assay: SRB anticancer assay, prostate; assay type: cell-based, human; set-up: Log10GI50: unit not given here
SF-295 = assay: SRB anticancer assay, CNS; assay type: cell-based, human; set-up: Log10GI50: unit not given here
Breast cancer cell lines = assay: SRB anticancer assay, panel result; assay type: cell-based, human
Protocol: (§1) The compounds were evaluated for anticancer activity against sixty human cancer cells derived from nine cancer types (leukemia cell line, non-small-cell lung cell line, colon cell line, CNS cell line, melanoma cell line, ovarian cell line, prostate cell line, renal cancer cell line and breast cancer cell line) as shown in Table 1. For each compound, dose response curves for each cell line were measured at a minimum of five concentrations at 10 fold dilutions. A protocol of 48 h continuous drug exposure was used and a sulforhodamine B (SRB) protein assay was used to estimate cell viability or growth.

[1] = system: Ovarian cancer cell lines; assay: SRB anticancer assay, panel result; assay type: cell-based, human
Protocol: as §1

[2] = system: Leukemia cancer cell lines; assay: SRB anticancer assay, panel result; assay type: cell-based, human
Protocol: as §1

Colon cancer cell lines = assay: SRB anticancer assay, panel result; assay type: cell-based, human
Protocol: as §1

Renal cancer cell lines = assay: SRB anticancer assay, panel result; assay type: cell-based, human
Protocol: as §1

[3] = system: Melanoma cancer cell lines; assay: SRB anticancer assay, panel result; assay type: cell-based, human
Protocol: as §1

CNS cancer cell lines = assay: SRB anticancer assay, panel result; assay type: cell-based, human
Protocol: as §1

[4] = system: Prostate cancer cell lines; assay: SRB anticancer assay, panel result; assay type: cell-based, human
Protocol: as §1

[5] = system: Non-small cell lung cancer cell lines; assay: SRB anticancer assay, panel result; assay type: cell-based, human
Protocol: as §1

LOX IMVI = assay: SRB anticancer assay, melanoma; assay type: cell-based, human; set-up: Log10GI50: unit not given here

Work on `COc1cc(OC)cc(-c2cncn2-c2ccc(-c3nc4cc(OC)c(OC)c(OC)c4s3)cc2)c1` [Compound 7d, 2-(4-(5-(3,5-Dimethoxyphenyl)-1H-imidazol-1-yl)phenyl)-5,6,7-trimethoxybenzo[d]thiazole] yielded a GI50 (T-47D) of 10.7 µM, a GI50 (HCT-116) of 3.76 µM and a Log10GI50 (A498; A498, present compounds) greater than −4.0. For the same compound, the GI50 (A498; Homo sapiens, A498, 48 h) was greater than 100 µM, the GI50 (MALME-3M; Homo sapiens, Malme-3M, 48 h) was 9.58 µM and the Log10GI50 (MALME-3M; MALME-3M, present compounds) was −5.02. For the same compound, the GI50 (TK-10) was 26.4 µM, the GI50 (MDA-MB-231/ATCC; MDA-MB-231/ATCC (row head MDA-MB-)) was 19.2 µM and the GI50 (MDA-MB-231/ATCC; row head printed 231/ATCC (second line of MDA-MB-231/ATCC)) was 20.9 µM. For the same compound, the Log10GI50 (MDA-MB-231/ATCC; MDA-MB-231/ATCC, present compounds) was −4.72, the GI50 (OVCAR-3; Homo sapiens, OVCAR-3, 48 h) was 6.07 µM and the Log10GI50 (OVCAR-3; OVCAR-3, present compounds) was −5.22. The GI50 (UO-31; Homo sapiens, UO-31, 48 h) was 1.94 µM, the Log10GI50 (UO-31; UO-31, present compounds) was −5.71 and the GI50 (A549/ATCC; Homo sapiens, 48 h) was 5.59 µM. For the same compound, the Log10GI50 (A549/ATCC; present compounds) was −5.25, the GI50 (MCF7) was 4.02 µM and the GI50 (NCI-H226) was 21.7 µM. It also gave a GI50 (SF-268; Homo sapiens, SF-268, 48 h) of 22.1 µM, a Log10GI50 (SF-268; SF-268, present compounds) of −4.66 and a GI50 (OVCAR-4) of 6.67 µM. The GI50 (NCI-H23; Homo sapiens, NCI-H23, 48 h) was 9.56 µM, the Log10GI50 (NCI-H23; NCI-H23, present compounds) was −5.02 log10(M) and the GI50 (SK-MEL-5) was 2.85 µM. For the same compound, the Log10GI50 (DU-145; DU-145, present compounds) was −4.51, the GI50 (DU-145; Homo sapiens, DU-145, 48 h) was 31.1 µM and the GI50 (SF-295; Homo sapiens, SF-295, 48 h) was 3.64 µM. The Log10GI50 (SF-295; SF-295, present compounds) was −5.44, the “mean graph midpoint value (MG_MID) of log10 TGI” value (Breast cancer cell lines; Breast panel, total inhibition of net cell growth) was greater than −4.0 and the CC50 (Breast cancer cell lines; Homo sapiens, Breast panel, 50% net cell death, read-out: mean graph midpoint value (MG_MID) of Log10 LC50 (converted)) was greater than 100 µM. The GI50 (Breast cancer cell lines; Homo sapiens, Breast panel, read-out: mean graph midpoint value (MG_MID) of Log10 GI50 (converted)) was 9.12 µM, the GI50 (Breast cancer cell lines; Homo sapiens, six breast cancer cell lines, exposure at least 48 h, read-out: GI50, range over the panel) was 4.02 to 20.9 µM and the LC50 ([1]; Homo sapiens, Ovarian panel, 50% net cell death, read-out: mean graph midpoint value (MG_MID) of Log10 LC50 (converted)) was greater than 100 µM. For the same compound, the GI50 ([1]; Homo sapiens, Ovarian panel, read-out: mean graph midpoint value (MG_MID) of Log10 GI50 (converted)) was 16.2 µM, the GI50 ([1]; Homo sapiens, seven ovarian cancer cell lines, exposure at least 48 h, read-out: GI50, range over the panel) was 6.07 to 49.9 µM and the “mean graph midpoint value (MG_MID) of log10 TGI” value ([1]; Ovarian panel, total inhibition of net cell growth) was −4.08. The LC50 ([2]; Homo sapiens, Leukemia panel, 50% net cell death, read-out: mean graph midpoint value (MG_MID) of Log10 LC50 (converted)) was greater than 100 µM, the GI50 ([2]; Homo sapiens, Leukemia panel, read-out: mean graph midpoint value (MG_MID) of Log10 GI50 (converted)) was 3.72 µM and the GI50 ([2]; Homo sapiens, six leukemia cancer cell lines, exposure at least 48 h, read-out: GI50, range over the panel) was 2.43 to 7.14 µM. For the same compound, the “mean graph midpoint value (MG_MID) of log10 TGI” value ([2]; Leukemia panel, total inhibition of net cell growth) was greater than −4.0, the “mean graph midpoint value (MG_MID) of log10 TGI” value (Colon cancer cell lines; Colon panel, total inhibition of net cell growth) was greater than −4.0 and the LC50 (Colon cancer cell lines; Homo sapiens, Colon panel, 50% net cell death, read-out: mean graph midpoint value (MG_MID) of Log10 LC50 (converted)) was greater than 100 µM. It also gave a GI50 (Colon cancer cell lines; Homo sapiens, Colon panel, read-out: mean graph midpoint value (MG_MID) of Log10 GI50 (converted)) of 9.12 µM, a GI50 (Colon cancer cell lines; Homo sapiens, seven colon cancer cell lines, exposure at least 48 h, read-out: GI50, range over the panel) of 3.76 to 13.7 µM and a CC50 (Renal cancer cell lines; Homo sapiens, Renal panel, 50% net cell death, read-out: mean graph midpoint value (MG_MID) of Log10 LC50 (converted)) greater than 100 µM. For the same compound, the GI50 (Renal cancer cell lines; Homo sapiens, Renal panel, read-out: mean graph midpoint value (MG_MID) of Log10 GI50 (converted)) was 14.8 µM, the GI50 (Renal cancer cell lines; Homo sapiens, eight renal cancer cell lines, exposure at least 48 h, read-out: GI50, range over the panel) was 1.94 to 31.9 µM and the “mean graph midpoint value (MG_MID) of log10 TGI” value (Renal cancer cell lines; Renal panel, total inhibition of net cell growth) was −4.03. For the same compound, the LC50 ([3]; Homo sapiens, Melanoma panel, 50% net cell death, read-out: mean graph midpoint value (MG_MID) of Log10 LC50 (converted)) was greater than 100 µM, the GI50 ([3]; Homo sapiens, Melanoma panel, read-out: mean graph midpoint value (MG_MID) of Log10 GI50 (converted)) was 9.33 µM and the GI50 ([3]; Homo sapiens, nine melanoma cancer cell lines, exposure at least 48 h, read-out: GI50, range over the panel) was 2.85 to 31.6 µM. For the same compound, the “mean graph midpoint value (MG_MID) of log10 TGI” value ([3]; Melanoma panel, total inhibition of net cell growth) was −4.02, the “mean graph midpoint value (MG_MID) of log10 TGI” value (CNS cancer cell lines; CNS panel, total inhibition of net cell growth) was −4.11 and the CC50 (CNS cancer cell lines; Homo sapiens, CNS panel, 50% net cell death, read-out: mean graph midpoint value (MG_MID) of Log10 LC50 (converted)) was greater than 100 µM. The GI50 (CNS cancer cell lines; Homo sapiens, CNS panel, read-out: mean graph midpoint value (MG_MID) of Log10 GI50 (converted)) was 12 µM, the GI50 (CNS cancer cell lines; Homo sapiens, six CNS cancer cell lines, exposure at least 48 h, read-out: GI50, range over the panel) was 3.64 to 22.1 µM and the LC50 ([4]; Homo sapiens, Prostate panel, 50% net cell death, read-out: mean graph midpoint value (MG_MID) of Log10 LC50 (converted)) was greater than 100 µM. For the same compound, the GI50 ([4]; Homo sapiens, Prostate panel, read-out: mean graph midpoint value (MG_MID) of Log10 GI50 (converted)) was 10 µM, the GI50 ([4]; Homo sapiens, two prostate cancer cell lines (PC-3, DU-145), exposure at least 48 h, read-out: GI50, range over the panel) was 3.17 to 31.1 µM and the “mean graph midpoint value (MG_MID) of log10 TGI” value ([4]; Prostate panel, total inhibition of net cell growth) was greater than −4.0. For the same compound, the LC50 ([5]; Homo sapiens, Non-small cell lung panel, 50% net cell death, read-out: mean graph midpoint value (MG_MID) of Log10 LC50 (converted)) was greater than 100 µM, the GI50 ([5]; Homo sapiens, Non-small cell lung panel, read-out: mean graph midpoint value (MG_MID) of Log10 GI50 (converted)) was 15.1 µM and the GI50 ([5]; Homo sapiens, nine Non-small cell lung cancer cell lines, exposure at least 48 h, read-out: GI50, range over the panel) was 1.87 to 86.5 µM. The “mean graph midpoint value (MG_MID) of log10 TGI” value ([5]; Non-small cell lung panel, total inhibition of net cell growth) was greater than −4.0, the GI50 (LOX IMVI; Homo sapiens, 48 h) was 6.93 µM and the Log10GI50 (LOX IMVI; present compounds) was −5.16.
